According to ChEMBL document CHEMBL1201862, “PubChem BioAssay data set” (2004):
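In this assay, cells in 96-well plates receive the compound at five concentrations for 48 hours. Endpoints are linearly interpolated between the surrounding concentrations. At the GI50, growth is halved.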 Activity calls are given as the source filed them. No stated cut-off is given here; in the data, active = GI50 up to about 1.1 µM and inactive = higher.

Tests used:
Assay in all cases: NCI anticancer screen, dose series, 48 h
CAKI-1 = test system: CAKI-1
COLO 205 = test system: COLO 205
EKVX = test system: EKVX
HCC 2998 = test system: HCC 2998
HCT-15 = test system: HCT-15
HOP-62 = test system: HOP-62
HOP-92 = test system: HOP-92
HT-29 = test system: HT-29
IGROV-1 = test system: IGROV-1
KM12 = test system: KM12
M14 = test system: M14
MDA-N = test system: MDA-N
OVCAR-8 = test system: OVCAR-8
RPMI-8226 = test system: RPMI-8226
RXF 393 = test system: RXF 393
SF-295 = test system: SF-295
SK-MEL-2 = test system: SK-MEL-2
SK-MEL-5 = test system: SK-MEL-5
T47D = test system: T47D
TK-10 = test system: TK-10

SMILES	GI50 (CAKI-1)	GI50 (COLO 205)	GI50 (EKVX)	GI50 (HCC 2998)	GI50 (HCT-15)	GI50 (HOP-62)	GI50 (HOP-92)	GI50 (HT-29)	GI50 (IGROV-1)	GI50 (KM12)	GI50 (M14)	GI50 (MDA-N)	GI50 (OVCAR-8)	GI50 (RPMI-8226)	GI50 (RXF 393)	GI50 (SF-295)	GI50 (SK-MEL-2)	GI50 (SK-MEL-5)	GI50 (T47D)	GI50 (TK-10)
CC1=C(/C=C/C(C)=C/C=C/C(C)=C/C(=O)Nc2ccc(O)cc2)C(C)(C)CCC1 [FENRETINIDE]	5.06 µM (inactive)	2.61 µM (inactive)	9.25 µM (inactive)	4.16 µM (inactive)	5.92 µM	5.46 µM (inactive)	2.97 µM (inactive)	2.63 µM (inactive)	2.02 µM (inactive)	3.92 µM (inactive)	4.92 µM (inactive)	2.75 µM (inactive)	3.61 µM (inactive)	1.65 µM (inactive)	2.04 µM (inactive)	2.85 µM (inactive)	7.33 µM (inactive)	4.15 µM (inactive)	2.7 µM (inactive)	16.1 µM (inactive)
CN1N=C(c2ccccc2)C(C(c2ccccc2[N+](=O)[O-])C2C(=O)N(C)N=C2c2ccccc2)C1=O (stereo not given)	> 100 µM (inactive)	> 100 µM (inactive)	> 100 µM (inactive)	53 µM (inactive)	42.6 µM	93.1 µM (inactive)	> 80.9 µM (inactive)	> 68.7 µM (inactive)	25.1 µM (inactive)	> 75 µM (inactive)	> 100 µM (inactive)	> 100 µM (inactive)	39.3 µM (inactive)	34.3 µM (inactive)	52 µM (inactive)	> 100 µM (inactive)	66.5 µM (inactive)	> 100 µM (inactive)	> 100 µM (inactive)	> 100 µM (inactive)
O=C(c1ccco1)N(Cc1ccco1)C(=S)Nc1ccccc1	7.08 µM (inactive)	12.9 µM (inactive)	45.9 µM (inactive)	33.1 µM (inactive)	9.2 µM	36.6 µM (inactive)	7.53 µM (inactive)	8.71 µM (inactive)	16.1 µM (inactive)	8.2 µM (inactive)	12 µM (inactive)	10.5 µM (inactive)	19 µM (inactive)	3.1 µM (inactive)	16 µM (inactive)	32.2 µM (inactive)	18.8 µM (inactive)	17.5 µM (inactive)	14.1 µM (inactive)	18.8 µM (inactive)
CCCCCCCC(=O)N/N=C/c1ccc(Sc2nccn2C)c([N+](=O)[O-])c1	15.5 µM (inactive)	13.7 µM (inactive)	14.7 µM (inactive)	13.4 µM (inactive)	14.5 µM	17.5 µM (inactive)	3.33 µM (inactive)	9.79 µM (inactive)	6.79 µM (inactive)	14.1 µM (inactive)	13.2 µM (inactive)	16.5 µM (inactive)	14.4 µM (inactive)	13 µM (inactive)	14.7 µM (inactive)	15.6 µM (inactive)	16.6 µM (inactive)	12.9 µM (inactive)	10.7 µM (inactive)	26.6 µM (inactive)
O=[N+]([O-])c1cccc2nc3ccccc3c(NCCCN3CCOCC3)c12	0.0221 µM (active)	< 0.01 µM (active)	< 0.0127 µM (active)	< 0.01 µM (active)	< 0.0104 µM	< 0.016 µM (active)	0.0159 µM (active)	< 0.01 µM (active)	0.0217 µM (active)	0.0154 µM (active)	< 0.0124 µM (active)	< 0.01 µM (active)	0.012 µM (active)	0.0103 µM (active)	< 0.013 µM (active)	0.0256 µM (active)	0.0194 µM (active)	< 0.0114 µM (active)	0.0355 µM (active)	0.029 µM (active)
CCCCCCc1nn2c(-c3ccncc3)nnc2s1	> 10 µM (inactive)	> 10 µM (inactive)	> 10 µM (inactive)	> 10 µM (inactive)	> 10 µM	> 10 µM (inactive)	8.65 µM (inactive)	> 10 µM (inactive)	> 10 µM (inactive)	> 10 µM (inactive)	> 10 µM (inactive)	> 10 µM (inactive)	> 10 µM (inactive)	> 10 µM (inactive)	> 10 µM (inactive)	> 10 µM (inactive)	> 10 µM (inactive)	> 10 µM (inactive)	> 10 µM (inactive)	> 10 µM (inactive)
CCOC(=O)c1ccc(Nc2c3c(nc4ccccc24)CCCC3)cc1	54.5 µM (inactive)	> 100 µM (inactive)	> 54.2 µM (inactive)	> 56.4 µM (inactive)	7.13 µM	10.6 µM (inactive)	18.1 µM (inactive)	2.89 µM (inactive)	4.91 µM (inactive)	3.54 µM (inactive)	> 34.2 µM (inactive)	1.76 µM (inactive)	44.7 µM (inactive)	> 100 µM (inactive)	33.9 µM (inactive)	17.1 µM (inactive)	> 86.9 µM (inactive)	> 42.5 µM (inactive)	8.51 µM (inactive)	> 74.1 µM (inactive)
